Experimental findings from ChEMBL document CHEMBL1143275, “Positive allosteric modulators of the metabotropic glutamate receptor subtype 4 (mGluR4). Part II: Challenges in hit-to-lead” (Bioorg Med Chem Lett, 2009) are described below.

Broadly, the EC50 is the concentration at which the effect is half-maximal.

SMILES strings stand for the structures. Calls of active or inactive are those of the source. No cut-off for these calls is given here.

In test [1] the target is Metabotropic glutamate receptor 1 (Homo sapiens) (UniProt Q13255). The test can be described thus: Antagonist activity at mGluR1 assessed as effect on glutamate-induced response. The format is functional. More on the design: scale not given: the % may be the effect or the level left.
Metabotropic glutamate receptor 1 (Homo sapiens), sequence (Q13255 19-1194 limits assumed): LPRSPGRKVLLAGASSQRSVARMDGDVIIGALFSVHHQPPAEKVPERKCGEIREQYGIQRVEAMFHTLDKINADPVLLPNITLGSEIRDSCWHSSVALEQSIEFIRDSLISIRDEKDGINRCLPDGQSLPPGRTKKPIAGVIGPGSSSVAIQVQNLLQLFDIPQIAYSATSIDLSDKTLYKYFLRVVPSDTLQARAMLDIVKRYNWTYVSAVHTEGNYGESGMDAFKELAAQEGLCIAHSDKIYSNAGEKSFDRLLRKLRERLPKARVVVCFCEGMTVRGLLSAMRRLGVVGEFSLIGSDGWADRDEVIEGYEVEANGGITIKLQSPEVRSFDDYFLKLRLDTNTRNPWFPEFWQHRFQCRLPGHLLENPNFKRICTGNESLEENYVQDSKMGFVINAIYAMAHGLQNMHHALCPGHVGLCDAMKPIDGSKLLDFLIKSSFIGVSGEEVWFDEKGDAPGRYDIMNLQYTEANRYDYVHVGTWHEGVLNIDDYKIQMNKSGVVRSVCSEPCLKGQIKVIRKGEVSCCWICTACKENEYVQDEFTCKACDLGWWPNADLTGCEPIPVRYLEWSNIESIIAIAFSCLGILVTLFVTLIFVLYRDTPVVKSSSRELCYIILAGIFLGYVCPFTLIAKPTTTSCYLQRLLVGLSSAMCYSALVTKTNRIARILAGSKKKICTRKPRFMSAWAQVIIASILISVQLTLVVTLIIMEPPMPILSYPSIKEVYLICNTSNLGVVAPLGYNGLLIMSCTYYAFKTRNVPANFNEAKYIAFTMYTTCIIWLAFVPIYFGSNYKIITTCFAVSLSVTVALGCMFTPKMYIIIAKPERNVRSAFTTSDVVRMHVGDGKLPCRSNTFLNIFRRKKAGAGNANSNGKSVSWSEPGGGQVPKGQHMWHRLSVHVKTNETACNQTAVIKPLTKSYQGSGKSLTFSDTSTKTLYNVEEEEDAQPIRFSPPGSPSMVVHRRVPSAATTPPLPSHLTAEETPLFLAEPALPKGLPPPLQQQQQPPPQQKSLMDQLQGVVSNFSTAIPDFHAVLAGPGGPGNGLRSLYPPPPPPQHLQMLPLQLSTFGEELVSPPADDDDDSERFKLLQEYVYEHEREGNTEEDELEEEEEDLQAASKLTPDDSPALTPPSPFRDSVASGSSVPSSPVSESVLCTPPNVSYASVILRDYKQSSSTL
Test [2] deals with T1, Metabotropic glutamate receptor 4 (Homo sapiens, UniProt Q14833). Nature of the test: Activation of human mGluR4 expressed in CHO cells coexpressing Gqi5 protein assessed as potentiation of glutamate-induced response. The class given is cell-based.
T1 sequence (Q14833 whole entry): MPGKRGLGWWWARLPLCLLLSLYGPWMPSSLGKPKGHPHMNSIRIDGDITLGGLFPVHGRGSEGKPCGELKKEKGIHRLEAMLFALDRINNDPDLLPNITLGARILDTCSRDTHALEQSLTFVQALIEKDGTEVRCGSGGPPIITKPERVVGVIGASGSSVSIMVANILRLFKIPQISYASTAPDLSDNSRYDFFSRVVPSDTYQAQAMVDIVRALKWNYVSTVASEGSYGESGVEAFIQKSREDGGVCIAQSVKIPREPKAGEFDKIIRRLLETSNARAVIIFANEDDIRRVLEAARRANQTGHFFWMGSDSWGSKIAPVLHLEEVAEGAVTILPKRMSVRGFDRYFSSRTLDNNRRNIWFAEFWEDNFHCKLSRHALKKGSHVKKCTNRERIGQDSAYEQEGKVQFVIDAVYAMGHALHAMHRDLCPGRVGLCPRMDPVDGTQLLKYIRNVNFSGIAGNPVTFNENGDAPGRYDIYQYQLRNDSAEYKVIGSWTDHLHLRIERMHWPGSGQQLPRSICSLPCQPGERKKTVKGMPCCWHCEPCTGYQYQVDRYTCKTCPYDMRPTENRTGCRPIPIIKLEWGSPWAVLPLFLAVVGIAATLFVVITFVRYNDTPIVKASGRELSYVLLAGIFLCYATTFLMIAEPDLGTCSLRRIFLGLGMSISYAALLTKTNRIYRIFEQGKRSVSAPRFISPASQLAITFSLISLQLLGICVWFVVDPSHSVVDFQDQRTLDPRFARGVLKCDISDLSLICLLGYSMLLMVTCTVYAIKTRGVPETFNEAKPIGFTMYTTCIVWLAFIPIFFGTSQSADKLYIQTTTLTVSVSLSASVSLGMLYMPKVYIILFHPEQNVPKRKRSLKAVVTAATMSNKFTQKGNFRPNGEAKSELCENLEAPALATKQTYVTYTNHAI
The target of test [3] is T1, Metabotropic glutamate receptor 4. The test can be described thus: Activation of human mGluR4 expressed in CHO cells coexpressing Gqi5 protein assessed as potentiation of glutamate-induced response relative to glutamate alone. The class given is cell-based. More on the design: concentration or dose not given beside the values.
Test [4] has the same target. Nature of the test: Activation of human mGluR4 expressed in CHO cells coexpressing Gqi5 protein assessed as fold shifting of glutamate-induced response at 30 uM. The class given is cell-based.
The target in test [5] is Metabotropic glutamate receptor 7 (Homo sapiens) (UniProt Q14831). Nature of the test: Antagonist activity at mGluR7 assessed as effect on glutamate-induced response. The class given is functional.
The target in test [6] is Metabotropic glutamate receptor 5 (Homo sapiens) (UniProt P41594). Nature of the test: Antagonist activity at mGluR5 assessed as effect on glutamate-induced response. The format is functional.
Metabotropic glutamate receptor 5 (Homo sapiens), sequence (P41594 21-1212 limits assumed): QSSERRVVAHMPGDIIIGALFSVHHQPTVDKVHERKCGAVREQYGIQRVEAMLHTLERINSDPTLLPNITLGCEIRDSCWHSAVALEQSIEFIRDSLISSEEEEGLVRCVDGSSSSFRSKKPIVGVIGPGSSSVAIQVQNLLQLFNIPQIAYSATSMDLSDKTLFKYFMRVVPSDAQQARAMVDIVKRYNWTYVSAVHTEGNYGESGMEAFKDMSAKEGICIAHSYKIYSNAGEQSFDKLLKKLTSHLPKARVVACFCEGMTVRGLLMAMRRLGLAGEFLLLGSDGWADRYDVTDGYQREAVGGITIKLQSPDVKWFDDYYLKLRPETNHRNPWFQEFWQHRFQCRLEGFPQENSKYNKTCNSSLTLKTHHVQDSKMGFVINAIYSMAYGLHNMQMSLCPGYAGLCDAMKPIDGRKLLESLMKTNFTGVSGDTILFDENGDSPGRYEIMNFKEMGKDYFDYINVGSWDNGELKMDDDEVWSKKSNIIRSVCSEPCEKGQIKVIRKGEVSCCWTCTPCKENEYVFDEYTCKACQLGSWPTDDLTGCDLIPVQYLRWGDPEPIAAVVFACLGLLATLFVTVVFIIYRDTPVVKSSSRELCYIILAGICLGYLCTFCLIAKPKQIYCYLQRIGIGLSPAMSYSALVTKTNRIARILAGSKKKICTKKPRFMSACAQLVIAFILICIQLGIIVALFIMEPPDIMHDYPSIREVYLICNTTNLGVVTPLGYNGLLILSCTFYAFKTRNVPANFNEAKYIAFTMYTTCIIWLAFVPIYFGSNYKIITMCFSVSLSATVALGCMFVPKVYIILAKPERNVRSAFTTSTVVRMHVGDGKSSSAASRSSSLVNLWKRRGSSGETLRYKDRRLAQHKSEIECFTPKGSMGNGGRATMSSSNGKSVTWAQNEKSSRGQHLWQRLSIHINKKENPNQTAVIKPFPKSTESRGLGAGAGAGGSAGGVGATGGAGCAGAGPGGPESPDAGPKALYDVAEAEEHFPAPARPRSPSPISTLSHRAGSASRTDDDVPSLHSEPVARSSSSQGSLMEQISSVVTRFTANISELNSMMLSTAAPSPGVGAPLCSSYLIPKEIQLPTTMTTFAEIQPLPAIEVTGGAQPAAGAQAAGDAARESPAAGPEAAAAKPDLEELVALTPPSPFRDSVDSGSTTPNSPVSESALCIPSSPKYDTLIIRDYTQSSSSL
Test [7] addresses T1, Metabotropic glutamate receptor 4. Nature of the test: Activation of human mGluR4 expressed in CHO cells coexpressing Gqi5 protein in absence of glutamate. The format is cell-based.
Test [8] deals with Metabotropic glutamate receptor 8 (Homo sapiens) (UniProt O00222). Nature of the test: Antagonist activity at mGluR8 assessed as effect on glutamate-induced response. The format is functional.
Metabotropic glutamate receptor 8 (Homo sapiens), sequence (O00222 whole entry): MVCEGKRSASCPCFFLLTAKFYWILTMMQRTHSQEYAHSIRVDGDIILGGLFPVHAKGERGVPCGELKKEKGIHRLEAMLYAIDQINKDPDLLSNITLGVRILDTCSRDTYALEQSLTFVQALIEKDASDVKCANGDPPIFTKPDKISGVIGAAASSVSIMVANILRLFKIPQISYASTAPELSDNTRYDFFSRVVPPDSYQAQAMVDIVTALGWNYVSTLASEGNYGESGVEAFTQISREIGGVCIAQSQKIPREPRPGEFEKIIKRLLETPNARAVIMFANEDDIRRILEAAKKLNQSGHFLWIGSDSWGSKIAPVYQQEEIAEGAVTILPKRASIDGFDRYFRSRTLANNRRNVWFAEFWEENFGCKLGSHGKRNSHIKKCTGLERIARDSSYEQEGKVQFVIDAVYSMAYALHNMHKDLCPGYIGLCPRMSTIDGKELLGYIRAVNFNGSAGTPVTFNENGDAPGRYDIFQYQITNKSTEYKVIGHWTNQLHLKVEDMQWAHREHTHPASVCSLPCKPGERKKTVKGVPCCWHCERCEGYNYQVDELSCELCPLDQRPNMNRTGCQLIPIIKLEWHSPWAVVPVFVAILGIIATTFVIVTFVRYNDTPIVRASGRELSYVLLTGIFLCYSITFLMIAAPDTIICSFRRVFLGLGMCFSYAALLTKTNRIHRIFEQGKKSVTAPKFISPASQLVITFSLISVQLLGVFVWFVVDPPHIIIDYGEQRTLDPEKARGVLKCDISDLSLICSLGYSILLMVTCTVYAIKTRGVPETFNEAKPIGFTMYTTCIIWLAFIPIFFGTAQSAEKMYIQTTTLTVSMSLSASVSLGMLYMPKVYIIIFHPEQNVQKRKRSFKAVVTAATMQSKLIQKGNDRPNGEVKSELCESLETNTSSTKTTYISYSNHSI
Test [9] addresses Metabotropic glutamate receptor 2 (Homo sapiens) (UniProt Q14416). The test can be described thus: Antagonist activity at mGluR2 assessed as effect on glutamate-induced response. The class given is functional.

Metabotropic glutamate receptor 2 (Homo sapiens), sequence (Q14416 19-872 limits assumed): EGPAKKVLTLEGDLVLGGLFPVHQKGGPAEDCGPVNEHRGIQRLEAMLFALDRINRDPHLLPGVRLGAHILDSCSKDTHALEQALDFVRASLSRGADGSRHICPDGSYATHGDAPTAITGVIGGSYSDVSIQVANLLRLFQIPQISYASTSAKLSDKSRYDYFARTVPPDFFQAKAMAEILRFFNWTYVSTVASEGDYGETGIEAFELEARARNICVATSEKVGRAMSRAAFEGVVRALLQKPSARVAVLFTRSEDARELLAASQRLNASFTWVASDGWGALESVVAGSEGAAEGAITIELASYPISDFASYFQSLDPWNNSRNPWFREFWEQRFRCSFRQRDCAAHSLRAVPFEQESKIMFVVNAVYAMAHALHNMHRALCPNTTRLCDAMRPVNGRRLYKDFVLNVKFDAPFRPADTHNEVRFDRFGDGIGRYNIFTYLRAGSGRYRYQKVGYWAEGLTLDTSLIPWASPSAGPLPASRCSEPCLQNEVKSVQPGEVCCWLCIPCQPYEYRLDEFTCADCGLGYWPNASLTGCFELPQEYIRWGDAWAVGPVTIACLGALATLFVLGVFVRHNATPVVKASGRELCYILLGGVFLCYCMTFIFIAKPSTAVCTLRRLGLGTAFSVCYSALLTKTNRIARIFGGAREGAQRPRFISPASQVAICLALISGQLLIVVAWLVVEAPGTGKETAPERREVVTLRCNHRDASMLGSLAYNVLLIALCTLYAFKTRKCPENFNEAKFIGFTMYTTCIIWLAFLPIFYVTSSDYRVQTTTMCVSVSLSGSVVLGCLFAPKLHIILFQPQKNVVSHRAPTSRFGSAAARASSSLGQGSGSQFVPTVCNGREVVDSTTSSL

In the case of `O=C(Nc1ccccc1)[C@]12C[C@H]1/C(=N\O)c1ccccc1O2`, the Activity in test [1] was determined as 30%.

In the case of `COc1ccccc1/C=N/Nc1nc2ccccc2nc1C`, the result in [2] was inactive.

Consider `Cc1ccc(N2C(=O)c3ccccc3NC2C(C)c2ccccc2)cc1` (stereo not given), for which the EC50 in [2] was found to be 3 µM. For the same compound, the Activity in [3] worked out at 129%.

As for `Cc1nc2ccccc2nc1N/N=C/c1ccccc1O`, in [2], the EC50 came out at 4.1 µM. The Activity in test [3] worked out at 57%.

`CC(c1ccccc1)C1Nc2ccccc2C(=O)N1c1cccc(F)c1` (stereo not given): the EC50 in test [2] was greater than 10 µM. For the same compound, the Activity in test [3] was 87%.

For `Cc1nc2ccccc2nc1N/N=C/c1cccc(O)c1`, the EC50 in [2] was found to be 2.4 µM. Also, in test [3], the Activity is 136%.

Take `Cc1nc2ccccc2nc1N/N=C/c1ccc(O)cc1`: the EC50 in test [2] was determined as 1.7 µM. For the same compound, in test [3], the Activity stood at 144%. Besides, the result in test [1], in [5], in [6], in test [7], in test [8] and in test [9] was inactive. In addition, in test [4], the fold change (FC) is 36.

Turning to `COC(=O)c1ccc(N2C(=O)c3ccccc3NC2C(C)c2ccccc2)cc1` (stereo not given), in test [2], the EC50 is greater than 10 µM. In [3], the Activity was 69%.

As to `Cc1nc2ccccc2nc1N/N=C/c1ccccc1`, in test [2], the EC50 came to 4.4 µM. Besides, the Activity in test [3] turned out to be 129%.

Consider `Cc1nc2ccccc2nc1N/N=C/c1ccc(F)cc1`, for which the EC50 in [2] was greater than 5 µM. Moreover, the Activity in [3] was 87%.
